This note sets out measurements from ChEMBL document CHEMBL1201862, “PubChem BioAssay data set” (2004).

Each structure is given as a SMILES string.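 These data come from cells grown in 96-well plates and exposed to compound for 48 hours at five concentrations. Abbreviation: GI50, concentration required for 50% inhibition of growth.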 Calls of active or inactive are those of the source. Cut-off read from the data, not from the text of the source: active = GI50 up to about 1.1 µM and inactive = higher. Where only a bound is given, the exact number is not on record here.

Some test systems named below: A498; A549; CCRF-CEM; COLO 205; HL-60; HOP-62; HOP-92; HT-29; IGROV-1; LOX IMVI; NCI-H522; OVCAR-3; OVCAR-5; RPMI-8226; SF-539; SK-MEL-2; SK-MEL-5; SW-620; UACC-257; HCC 2998.
Assay in all cases: NCI anticancer screen, dose series, 48 h

In the case of `Cc1c(N2C(=O)CS(=O)(=O)C2c2cccc(Oc3ccccc3)c2)c(=O)n(-c2ccccc2)n1C` (configuration not stated), the GI50 in the test on A498 was < 0.01 µM (active); with A549, 71.8 µM (inactive); in the test on CCRF-CEM, 45.9 µM (inactive); in the test with COLO 205, 28 µM (inactive); in the test with HL-60, 14.1 µM (inactive); in the test with HOP-62 it was 33.9 µM (inactive). The GI50 in the test with HOP-92 is 44.2 µM (inactive); with HT-29, 34.4 µM (inactive); in the test on IGROV-1 it was 46.9 µM (inactive); in the test with LOX IMVI, 47.6 µM (inactive); in the test on NCI-H522, 26.1 µM (inactive); in the test with OVCAR-3, 26.8 µM (inactive). Besides, the GI50 was > 100 µM (inactive) in the test with OVCAR-5; 27.2 µM (inactive) with RPMI-8226; > 100 µM (inactive) in the test on SF-539; 72.9 µM (inactive) in the test with SK-MEL-2; 35.6 µM (inactive) in the test on SK-MEL-5; > 100 µM (inactive) with SW-620. Moreover, the GI50 with UACC-257 is > 100 µM (inactive).

`C1#Cc2ccccc2OCCOc2ccccc2C#Cc2ccccc2OCCOc2ccccc21`: the GI50 with A498 was 17.3 µM (inactive); in the test with A549, 25.2 µM (inactive); in the test with CCRF-CEM, 18 µM (inactive); in the test with COLO 205, 30.1 µM (inactive); with HL-60, 61.2 µM (inactive); in the test with HOP-62, 8.77 µM (inactive). Also, the GI50 in the test with HT-29 was 66.5 µM (inactive); with IGROV-1, 15.6 µM (inactive); in the test on LOX IMVI it was 16 µM (inactive); in the test on NCI-H522, 20.7 µM (inactive); with OVCAR-3 it was 14 µM (inactive); with OVCAR-5, 24 µM (inactive). In addition, the GI50 in the test on RPMI-8226 is 16.4 µM (inactive); with SK-MEL-2, 71 µM (inactive); in the test on SK-MEL-5 it was 18.2 µM (inactive); with SW-620, 34 µM (inactive); in the test on UACC-257 it was > 100 µM (inactive).

In the case of `COc1c(Cl)ccc(Cl)c1C(=O)NNC(=O)c1c(Cl)c(Cl)c(Cl)c(Cl)c1-c1nc2cc(C(=O)c3ccccc3)ccc2[nH]1`, the GI50 was 61.2 µM (inactive) with A498; 56 µM (inactive) in the test on A549; 28.8 µM (inactive) in the test with CCRF-CEM; 47.4 µM (inactive) in the test with COLO 205; 50.5 µM (inactive) in the test on HL-60; 82 µM (inactive) with HOP-62. Also, the GI50 in the test on HOP-92 is 52.6 µM (inactive); in the test on HT-29, 62.1 µM (inactive); in the test on IGROV-1, 31 µM (inactive); in the test with LOX IMVI, 55.1 µM (inactive); in the test with NCI-H522, 33.1 µM (inactive); in the test with OVCAR-3 it was 30.5 µM (inactive). In addition, the GI50 in the test with OVCAR-5 was > 100 µM (inactive); in the test with RPMI-8226, 24.2 µM (inactive); in the test with SF-539, > 100 µM (inactive); in the test on SK-MEL-2, 31.9 µM (inactive); with SK-MEL-5, 25.2 µM (inactive); in the test with SW-620, > 100 µM (inactive). Further, the GI50 in the test on UACC-257 was 76.6 µM (inactive).

Regarding `CCC(=O)NC(OCC1(CC)COC1)(C(F)(F)F)C(F)(F)F`, the GI50 in the test on A498, in the test with CCRF-CEM, in the test on HCC 2998, with HL-60, in the test with HOP-62 and in the test on HT-29 was > 100 µM (inactive) throughout. The GI50 in the test with LOX IMVI, in the test with NCI-H522, in the test on OVCAR-3, with OVCAR-5, in the test on RPMI-8226 and in the test with SF-539 was > 100 µM (inactive) each time. In addition, the GI50 in the test with SK-MEL-2 and in the test on UACC-257 was > 100 µM (inactive) throughout.

For the compound `CCN(CC)CCNCc1cc(Cl)cc2c1OCOC2`, the GI50 in the test with A498, with A549, in the test with CCRF-CEM, in the test with COLO 205, with HCC 2998 and in the test on HL-60 was > 10 µM (inactive) each time. In addition, the GI50 in the test on HOP-62, with HT-29, in the test on IGROV-1, in the test with LOX IMVI, in the test with NCI-H522 and in the test on OVCAR-3 was > 10 µM (inactive) throughout. For the same compound, the GI50 in the test on OVCAR-5, in the test with RPMI-8226, in the test on SF-539, in the test on SK-MEL-2, in the test on SK-MEL-5 and in the test on SW-620 was > 10 µM (inactive) in each case.

`Cc1cc(C)c2c(n1)S(=O)(=O)N(CCCN1CCN(c3cccc(C(F)(F)F)c3)CC1)C(C(=O)c1ccccc1)=C2O`: the GI50 is 8.57 µM (inactive) with A498; 4.55 µM (inactive) in the test with A549; 5.19 µM (inactive) in the test with CCRF-CEM; 3.31 µM (inactive) with COLO 205; 2.61 µM (inactive) in the test on HL-60; 8.38 µM (inactive) in the test on HOP-62. The GI50 in the test with HOP-92 is 5.19 µM (inactive); in the test with HT-29, 5.22 µM (inactive); with IGROV-1, 5.66 µM (inactive); with LOX IMVI it was 3.03 µM (inactive); in the test on NCI-H522, 4 µM (inactive); with OVCAR-3, 4.18 µM (inactive). The GI50 is 7.36 µM (inactive) in the test with OVCAR-5; 10.1 µM (inactive) with SF-539; 17.3 µM (inactive) with SK-MEL-2; 2.93 µM (inactive) in the test with SK-MEL-5; 4.13 µM (inactive) with SW-620; 5.66 µM (inactive) in the test with UACC-257.

Take `C=Cc1cc2c(cc1O)CC[C@@H]1[C@@H]2CC[C@]2(C)[C@@H](O)CC[C@@H]12`: the GI50 with A498 was 24.4 µM (inactive); in the test with A549, 5.78 µM (inactive); with CCRF-CEM, 4.15 µM (inactive); with COLO 205, 15.4 µM (inactive); in the test on HCC 2998 it was 11.2 µM (inactive); with HL-60, 2.67 µM (inactive). Moreover, the GI50 in the test with HT-29 is 15.3 µM (inactive); in the test on IGROV-1, 8.09 µM (inactive); with LOX IMVI, 8.63 µM (inactive); in the test with NCI-H522, 4.66 µM (inactive); in the test on OVCAR-5, 21.3 µM (inactive); in the test on SF-539, 2.06 µM (inactive). Also, the GI50 with SK-MEL-2 was 5.78 µM (inactive); in the test on SK-MEL-5 it was 4.39 µM (inactive); with SW-620, 4.32 µM (inactive); in the test on UACC-257 it was 4.15 µM (inactive).

In the case of `CC1=NN(C(=O)c2ccc(Cl)cc2)C(=O)C1/N=N/c1ccc(S(=O)(=O)Nc2ncccn2)cc1` (configuration not stated), the GI50 in the test with A549 is > 100 µM (inactive); in the test with COLO 205 it was > 100 µM (inactive); with HL-60, > 100 µM (inactive); in the test on HOP-62, > 100 µM (inactive); in the test with HOP-92, < 0.01 µM (active); in the test on HT-29 it was > 100 µM (inactive). For the same compound, the GI50 in the test on IGROV-1, with LOX IMVI, in the test on NCI-H522, with OVCAR-3, in the test on OVCAR-5 and in the test with SF-539 was > 100 µM (inactive) in each case. Further, the GI50 in the test on SK-MEL-2, in the test with SK-MEL-5, with SW-620 and with UACC-257 was > 100 µM (inactive) in each case.
